Experimental data from paper PMC10619140, “Thinking outside the CaaX-box: an unusual reversible prenylation on ALDH9A1” (RSC Chemical Biology, 2023).

What was measured:
ALDH9A1 [1] = biological target: T1, ALDH9A1 (Homo sapiens, UniProt P49189); experiment: inhibition of TMABAL oxidation by purified enzyme (NADH formation); preincubation and dialysis; also slow substrate; assay type: biochemical
T1 construct: recombinant ALDH9A1

ALDH9A1 [2] = biological target: T1, ALDH9A1; experiment: MST (RED-tris-NTA labelled enzyme); also NADH-formation activity assay; assay type: binding
ALDH9A1 [3] = biological target: T1, ALDH9A1; experiment: MST; also inhibition of TMABAL and ABAL oxidation at […]; assay type: binding

T1 sequence (P49189 whole entry): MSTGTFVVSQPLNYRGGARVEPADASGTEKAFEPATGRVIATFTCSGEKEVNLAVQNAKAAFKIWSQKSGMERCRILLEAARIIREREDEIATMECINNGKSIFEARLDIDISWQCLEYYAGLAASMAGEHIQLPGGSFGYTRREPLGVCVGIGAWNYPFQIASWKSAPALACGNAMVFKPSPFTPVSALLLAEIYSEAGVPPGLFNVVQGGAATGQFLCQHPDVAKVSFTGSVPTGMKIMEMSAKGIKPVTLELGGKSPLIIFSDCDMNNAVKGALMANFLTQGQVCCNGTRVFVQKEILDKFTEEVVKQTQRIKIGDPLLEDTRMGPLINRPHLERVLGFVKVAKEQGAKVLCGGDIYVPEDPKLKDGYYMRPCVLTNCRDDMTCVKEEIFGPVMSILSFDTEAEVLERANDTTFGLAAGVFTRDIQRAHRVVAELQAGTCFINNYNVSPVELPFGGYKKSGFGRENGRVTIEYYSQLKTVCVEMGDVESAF

Compound: CC(C)=CCC/C(C)=C/CC/C(C)=C/C=O [FCHO, farnesal]
- IC50 (ALDH9A1 [1]): ~10 µM

Compound: C[N+](C)(C)CCCC=O [TMABAL]
- Kd (ALDH9A1 [2]): 11 µM

Compound: C[N+](C)(C)NCCC(=O)[O-] [meldonium, 3-(2,2,2-trimethylhydrazinium) propionate]
- Kd (ALDH9A1 [3]): 1.2 mM
